Like-named read-outs stand apart in the source and are kept apart here.
Tests used:
[1] = molecular target: T1, RORγ ligand binding domain (LBD) (Homo sapiens, UniProt P51449); assay: TR-FRET Activity Assay (ligand sensing, RORγ-LBD / coactivator peptide interaction, LANCE); assay type: biochemical
T1 construct: made in house; host or cells: E. coli BL-21 (BL3), vector pDEST15
T1 sequence (P51449 269-508 limits assumed): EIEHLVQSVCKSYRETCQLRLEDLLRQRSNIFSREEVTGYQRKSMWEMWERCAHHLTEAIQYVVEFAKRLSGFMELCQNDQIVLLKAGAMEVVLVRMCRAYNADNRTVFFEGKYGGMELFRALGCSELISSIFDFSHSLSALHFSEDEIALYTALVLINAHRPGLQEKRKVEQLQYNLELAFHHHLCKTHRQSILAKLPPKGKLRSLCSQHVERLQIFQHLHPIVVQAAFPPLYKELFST

[2] = molecular target: T2, RORγ (UniProt P51449); assay: RORγ Gal4 Reporter Gene Assay in 293T cells (firefly and renilla luciferase); assay type: cell-based, human
T2 sequence (P51449 1-518): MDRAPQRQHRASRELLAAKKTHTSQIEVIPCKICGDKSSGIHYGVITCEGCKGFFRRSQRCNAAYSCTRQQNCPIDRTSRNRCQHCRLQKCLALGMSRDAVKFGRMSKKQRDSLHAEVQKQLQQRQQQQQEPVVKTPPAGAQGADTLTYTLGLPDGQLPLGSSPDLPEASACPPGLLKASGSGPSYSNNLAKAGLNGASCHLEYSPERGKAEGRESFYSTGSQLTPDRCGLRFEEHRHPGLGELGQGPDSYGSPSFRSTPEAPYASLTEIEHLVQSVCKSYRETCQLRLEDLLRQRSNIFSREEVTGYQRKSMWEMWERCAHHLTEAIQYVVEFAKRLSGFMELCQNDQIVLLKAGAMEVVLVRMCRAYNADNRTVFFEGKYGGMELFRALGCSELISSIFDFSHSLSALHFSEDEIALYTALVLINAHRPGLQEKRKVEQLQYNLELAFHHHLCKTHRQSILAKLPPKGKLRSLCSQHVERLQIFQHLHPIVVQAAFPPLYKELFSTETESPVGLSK

[3] = first value of the cell FRET/FF/REN, TR-FRET activity assay, read-out: pIC50 (FRET) (converted)
[4] = second value of the cell, Gal4 reporter gene assay in 293T cells, firefly luciferase
[5] = third value of the cell, Gal4 reporter gene assay in 293T cells, renilla normalised luciferase

Structure (SMILES) | IC50 [1, 3] | pIC50 (FF) [2, 4] | pIC50 (REN) [2, 5] | IC50 [1] | pIC50 (FF) [2] | pIC50 (REN) [2]
Cc1c(C(=O)NC2COC2)cc(-c2cc(C(=O)NC(C)C)cc(C(C)(C)C)c2)n1CC1CCCCC1 [15/6] | 1260 nM | 7.4 | 7.4 | – | – | –
Cc1c(C(=O)NCC(C)(C)O)cc(-c2cc(C(=O)NC(C)(C)C)cc(C(C)(C)C)c2)n1CC1CCCCC1 [15/8] | – | – | – | 1000 nM | 6.0/7.3/7.4 | 6.0/7.3/7.4
Cc1c(C(=O)NCC(C)(C)O)cc(-c2cc(C(=O)NC(C)C)cc(C(C)(C)C)c2)n1CC1CCCCC1 [15/9] | 1000 nM | 6.9 | 7.0 | – | – | –
Cc1c(C(=O)NC2CCOCC2)cc(-c2ccc(S(=O)(=O)N(CC(F)(F)F)C(C)(C)C)c(C(C)(C)C)c2)n1CC1CCCCC1 [17/1] | – | – | – | 1260 nM | 5.9/8.0/7.9 | 5.9/8.0/7.9
Cc1c(C(=O)NCCC[S+](C)[O-])cc(-c2cc(C(C)(C)C)c3c(c2)C2(CCO3)CC2)n1CC1CCCCC1 (stereo not drawn) [17/2] | – | – | – | 1000 nM | 6.0/6.6/6.5 | 6.0/6.6/6.5
Cc1c(C(=O)NCCCCCS(C)(=O)=O)cc(-c2cc(C(C)(C)C)c3c(c2)C2(CCO3)CC2)n1CC1CCCCC1 [17/4] | – | – | – | 631 nM | 6.2/6.7/6.7 | 6.2/6.7/6.7
Cc1c(C(=O)NC[C@H]2CCCO2)cc(-c2cc(C(C)(C)C)c3c(c2)C2(CCO3)CC2)n1CC1CCCCC1 [17/5] | 316 nM | 6.4 | 6.4 | – | – | –
Cc1c(C(=O)NC[C@@H]2CCCO2)cc(-c2cc(C(C)(C)C)c3c(c2)C2(CCO3)CC2)n1CC1CCCCC1 [17/6] | 251 nM | 6.4 | 6.5 | – | – | –
Cc1c(C(=O)NCC2(CO)COC2)cc(-c2cc(C(C)(C)C)c3c(c2)C2(CCO3)CC2)n1CC1CCCCC1 [17/8] | 794 nM | 7.2 | 7.2 | – | – | –
Cc1c(C(=O)NN2CCOCC2)cc(-c2cc(C(C)(C)C)c3c(c2)C2(CCO3)CC2)n1CC1CCCCC1 [17/9] | – | – | – | 631 nM | 6.2/6.8/6.8 | 6.2/6.8/6.8
Cc1c(C(=O)NCC2CCS(=O)(=O)CC2)cc(-c2cc(C(C)(C)C)c3c(c2)C2(CCO3)CC2)n1CC1CCCCC1 [17/10] | – | – | – | 398 nM | 6.4/7.6/7.6 | 6.4/7.6/7.6
Cc1c(C(=O)NCC2(S(C)(=O)=O)CCOCC2)cc(-c2cc(C(C)(C)C)c3c(c2)C2(CCO3)CC2)n1CC1CCCCC1 [17/11] | – | – | – | 200 nM | 6.7/7.2/7.2 | 6.7/7.2/7.2
Cc1c(C(=O)NCC2CCS(=O)(=O)C2)cc(-c2cc(C(C)(C)C)c3c(c2)C2(CCO3)CC2)n1CC1CCCCC1 (stereo not drawn) [17/12] | 200 nM | 7.2 | 7.4 | – | – | –
Cc1c(C(=O)NC2(C)COC2)cc(-c2cc(C(C)(C)C)c3c(c2)C2(CCO3)CC2)n1CC1CCCCC1 [17/13] | – | – | – | 631 nM | 6.2/6.8/6.9 | 6.2/6.8/6.9
Cc1c(C(=O)NCC2COCCN2C)cc(-c2cc(C(C)(C)C)c3c(c2)C2(CCO3)CC2)n1CC1CCCCC1 (stereo not drawn) [17/14] | 1260 nM | 5.9 | 5.7 | – | – | –
Cc1c(C(=O)NC2CCS(=O)(=O)C2)cc(-c2cc(C(C)(C)C)c3c(c2)C2(CCO3)CC2)n1CC1CCCCC1 (stereo not drawn) [17/15] | 794 nM | 7.2 | 7.1 | – | – | –
Cc1c(C(=O)NCc2nc(C(=O)O)co2)cc(-c2cc(C(C)(C)C)c3c(c2)C2(CCO3)CC2)n1CC1CCCCC1 [17/16] | 3980 nM | 6.1 | 6.0 | – | – | –
Cc1c(C(=O)NCc2nc(C(N)=O)co2)cc(-c2cc(C(C)(C)C)c3c(c2)C2(CCO3)CC2)n1CC1CCCCC1 [17/17] | – | – | – | 794 nM | 6.1/6.3/6.4 | 6.1/6.3/6.4
Cc1c(C(=O)NCc2cocn2)cc(-c2cc(C(C)(C)C)c3c(c2)C2(CCO3)CC2)n1CC1CCCCC1 [17/18] | – | – | – | 1000 nM | 6.0/6.1/6.1 | 6.0/6.1/6.1
Cc1c(C(=O)NCC(C)(C)CC(=O)O)cc(-c2cc(C(C)(C)C)c3c(c2)C2(CCO3)CC2)n1CC1CCCCC1 [17/19] | 794 nM | 7.5 | 7.5 | – | – | –
Cc1c(C(=O)NCC(C)(C)CC(N)=O)cc(-c2cc(C(C)(C)C)c3c(c2)C2(CCO3)CC2)n1CC1CCCCC1 [17/20] | 398 nM | 7.1 | 7.1 | – | – | –

Structure (SMILES) | IC50 [1, 3] | pIC50 (FF) [2, 4] | pIC50 (REN) [2, 5] | IC50 [1] | pIC50 (FF) [2] | pIC50 (REN) [2]
Cc1c(C(=O)NC2CC(=O)C2)cc(-c2cc(C(C)(C)C)c3c(c2)C2(CCO3)CC2)n1CC1CCCCC1 [17/21] | – | – | – | 631 nM | 6.2/7.0/6.9 | 6.2/7.0/6.9
Cc1c(C(=O)NC2CC(C)(O)C2)cc(-c2cc(C(C)(C)C)c3c(c2)C2(CCO3)CC2)n1CC1CCCCC1 (stereo not drawn) [17/22] | 1000 nM | 6.5 | 6.6 | – | – | –
Cc1c(C(=O)NCC(O)C(F)(F)F)cc(-c2cc(C(C)(C)C)c3c(c2)C2(CCO3)CC2)n1CC1CCCCC1 (stereo not drawn) [17/23] | 1260 nM | 6.6 | 6.6 | – | – | –
Cc1c(C(=O)NC2SC(=O)NC2=O)cc(-c2cc(C(C)(C)C)c3c(c2)C2(CCO3)CC2)n1CC1CCCCC1 (stereo not drawn) [17/24] | 3160 nM | 5.8 | 5.7 | – | – | –
Cc1c(C(=O)NC2C[S+]([O-])C2)cc(-c2cc(C(C)(C)C)c3c(c2)C2(CCO3)CC2)n1CC1CCCCC1 (stereo not drawn) [17/25] | – | – | – | 316 nM | 6.5/6.9/7.0 | 6.5/6.9/7.0
Cc1c(C(=O)NCC(C)(C)C(=O)NS(C)(=O)=O)cc(-c2cc(C(C)(C)C)c3c(c2)C2(CCO3)CC2)n1CC1CCCCC1 [17/26] | 1580 nM | 7.3 | 7.3 | – | – | –
CC(=O)NC(C)(C)CNC(=O)c1cc(-c2cc(C(C)(C)C)c3c(c2)C2(CCO3)CC2)n(CC2CCCCC2)c1C [17/28] | 251 nM | 7.4 | 7.4 | – | – | –
Cc1c(C(=O)NCC(C)(C)NC(=O)CCC(=O)O)cc(-c2cc(C(C)(C)C)c3c(c2)C2(CCO3)CC2)n1CC1CCCCC1 [17/29] | 1260 nM | 6.8 | 6.7 | – | – | –
Cc1c(C(=O)NCC(C)(C)NC(=O)CO)cc(-c2cc(C(C)(C)C)c3c(c2)C2(CCO3)CC2)n1CC1CCCCC1 [17/30] | 251 nM | 7.7 | 7.7 | – | – | –
Cc1c(C(=O)NCC(C)(C)NC(=O)CCO)cc(-c2cc(C(C)(C)C)c3c(c2)C2(CCO3)CC2)n1CC1CCCCC1 [17/31] | – | – | – | 1000 nM | 6.0/7.3/7.3 | 6.0/7.3/7.3
COCCS(=O)(=O)NC(C)(C)CNC(=O)c1cc(-c2cc(C(C)(C)C)c3c(c2)C2(CCO3)CC2)n(CC2CCCCC2)c1C [17/32] | – | – | – | 200 nM | 6.7/7.2/7.2 | 6.7/7.2/7.2
Cc1c(C(=O)NCC(C)(C)NS(=O)(=O)C2CC2)cc(-c2cc(C(C)(C)C)c3c(c2)C2(CCO3)CC2)n1CC1CCCCC1 [17/33] | 631 nM | 7.1 | 7.2 | – | – | –
Cc1c(C(=O)NCC2(C(=O)NCCCO)CCOCC2)cc(-c2cc(C(C)(C)C)c3c(c2)C2(CCO3)CC2)n1CC1CCCCC1 [17/34] | 1580 nM | 7.0 | 6.9 | – | – | –
Cc1c(C(=O)NCC(C)(C)NC(=O)CC2SC(=O)NC2=O)cc(-c2cc(C(C)(C)C)c3c(c2)C2(CCO3)CC2)n1CC1CCCCC1 (stereo not drawn) [17/35] | 1580 nM | 6.4 | 6.3 | – | – | –
Cc1c(C(=O)NCC2(O)COC2)cc(-c2cc(C(C)(C)C)c3c(c2)C2(CCO3)CC2)n1CC1CCCCC1 [17/36] | 794 nM | 6.9 | 6.9 | – | – | –
Cc1c(C(=O)NCC2(O)CCSCC2)cc(-c2cc(C(C)(C)C)c3c(c2)C2(CCO3)CC2)n1CC1CCCCC1 [17/37] | 1260 nM | 7.1 | 7.1 | – | – | –
Cc1c(C(=O)NCC2(O)CC[S+]([O-])CC2)cc(-c2cc(C(C)(C)C)c3c(c2)C2(CCO3)CC2)n1CC1CCCCC1 (stereo not drawn) [17/38] | 1000 nM | 6.7 | 6.7 | – | – | –
Cc1c(C(=O)N(C)CC2(O)CCOCC2)cc(-c2cc(C(C)(C)C)c3c(c2)C2(CCO3)CC2)n1CC1CCCCC1 [17/39] | – | – | – | 398 nM | 6.4/6.9/6.8 | 6.4/6.9/6.8
Cc1c(C(=O)NCC2(C(=O)O)CCOCC2)cc(-c2cc(C(C)(C)C)c3c(c2)C2(CCO3)CC2)n1CC1CCCCC1 [17/40] | 1260 nM | 6.9 | 6.8 | – | – | –
Cc1c(C(=O)NCC2(C(N)=O)CCOCC2)cc(-c2cc(C(C)(C)C)c3c(c2)C2(CCO3)CC2)n1CC1CCCCC1 [17/41] | 398 nM | 8.1 | 8.2 | – | – | –

Source: patent US9815851B2, “Pyrrolo carboxamides as modulators of orphan nuclear receptor RAR-related orphan receptor-gamma (RORγ, NR1F3) activity and for the treatment of chronic inflammatory and autoimmune diseases” (PHENEX PHARMACEUTICALS AG, priority 2011, dated 2017)
